Assay results taken from patent US8404736B2, “Heterocyclic amide derivatives as EP4 receptor antagonists” (Beta Pharma Canada Inc., priority 2008, dated 2013).

Molecular target: T1, EP4 receptor (Homo sapiens, UniProt P35408)
T1 construct: host or cells: HEK 293(ebna) according to the general protocol; cells used by the contract laboratory not given
Assay: EP4 receptor binding assay (inhibition of [3H]PGE2 binding, MSD Pharma Service)
Conditions: 1 nM [3H] PGE2, Human recombinant Chem-1 cells; for inhibition at 0.002 µM: Tested Concentration 2 nM; for inhibition at 0.01 µM: Tested Concentration 10 nM
Method: Transfected HEK 293(ebna) cells are maintained in culture, harvested and membranes are prepared by differential centrifugation, following lysis of the cells in the presence of protease inhibitors, for use in receptor binding assays. Prostanoid receptor binding assays (for DP1, DP2 (CRTH2), EP1, EP2, EP3-III, EP4, FP, IP, and TP) are performed in 10 mM MES/KOH (pH 6.0) (EPs, FP and TP) or 10 mM HEPES/KOH (pH 7.4) (DPs and IP), containing 1 mM EDTA, 2.5-30 mM divalent cation and the appropriate radioligand. Synthetic compounds are added in dimethylsulfoxide which is kept constant at 1% (v/v) in all incubations. The reaction is initiated by addition of membrane protein. Non-specific binding is determined in the presence of 10 μM of the corresponding non-radioactive prostanoid. Incubations are conducted for 60-90 min at room temperature or 30° C. and terminated by rapid filtration. Specific binding is calculated by subtracting non specific binding from total binding. The residual specific binding at each ligand concentration is calculated and expressed as a function of ligand concentration in order to construct sigmoidal concentration-response curves. The binding affinity of the compounds is determined by calculating the equilibrium inhibition constant (Ki) from the equation Ki=InPt/1[radioligand]/Kd where Kd is the equilibrium dissociation constant for the radioligand:receptor interaction and InPt is the inflection point of the dose-response curves.
EP4 receptor binding assays were performed at MSD Pharma Service in Taiwan under the following assay conditions: […]

T1 sequence (P35408 whole entry): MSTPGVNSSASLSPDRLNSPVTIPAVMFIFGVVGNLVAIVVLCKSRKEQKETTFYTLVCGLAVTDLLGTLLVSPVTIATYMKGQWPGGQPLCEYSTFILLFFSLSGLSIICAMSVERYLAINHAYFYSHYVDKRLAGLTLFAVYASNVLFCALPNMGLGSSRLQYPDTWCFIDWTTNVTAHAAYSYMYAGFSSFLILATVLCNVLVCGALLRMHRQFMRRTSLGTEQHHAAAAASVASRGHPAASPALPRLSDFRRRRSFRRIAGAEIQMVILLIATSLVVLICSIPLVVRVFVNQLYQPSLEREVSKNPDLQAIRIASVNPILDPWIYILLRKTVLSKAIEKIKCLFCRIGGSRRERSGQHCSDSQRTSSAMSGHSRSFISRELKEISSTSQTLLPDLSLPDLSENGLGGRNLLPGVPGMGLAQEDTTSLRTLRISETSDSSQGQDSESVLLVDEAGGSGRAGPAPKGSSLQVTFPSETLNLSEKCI

Compound	inhibition at 0.002 µM [%]	inhibition at 0.01 µM [%]
O=C(O)c1ccc(C2(NC(=O)c3csc4ccn(Cc5ccc(C(F)(F)F)cc5)c34)CC2)cc1	88	–
Cc1sc2ccn(Cc3ccc(C(F)(F)F)cc3)c2c1C(=O)NC1(c2ccc(C(=O)O)cc2)CC1	93	–
O=C(O)c1ccc(C2(NC(=O)c3cccc4c3N(Cc3ccc(C(F)(F)F)cc3)C(=O)C4)CC2)cc1	–	83
Cc1sc2ccn(Cc3ccc(C(F)(F)F)cc3)c2c1C(=O)NC(C)c1ccc(C(=O)O)cc1 (centres unmarked)	–	85
CC(NC(=O)c1csc2ccn(Cc3ccc(C(F)(F)F)cc3)c12)c1ccc(C(=O)O)cc1 (centres unmarked)	–	87
